Target: T1, human iGluR4 (Homo sapiens, UniProt P48058)
T1 construct: expressed in transfected cells
Test: Whole-cell voltage clamp electrophysiology of AMPA receptor potentiation in HEK293 cells expressing human iGluR4
Type: cell-based
Details: HEK293 cells stably expressing human iGluR4; voltage-clamped at −60 mV; 1 mM glutamate; fit to Hill equation; read-out: activity (EC50 value, potency of potentiation of the current evoked by glutamate)
Text: HEK293 cells stably expressing human iGluR4 (obtained as described in European Patent Application Publication No. EP-A1-0583917) are used in the electrophysiological characterization of AMPA receptor potentiators. The extracellular recording solution contains (in mM): 140 NaCl, 5 KCl, 10 HEPES, 1 MgCl2, 2 CaCl2, 10 glucose, pH=7.4 with NaOH, 295 mOsm kg-1. The intracellular recording solution contains (in mM): 140 CsCl, 1 MgCl2, 10 HEPES, (N-[2-hydroxyethyl]piperazine-N1-[2-ethanesulfonic acid]) 10 EGTA (ethylene-bis(oxyethylene-nitrilo)tetraacetic acid), pH=7.2 with CsOH, 295 mOsm kg-1. With these solutions, recording pipettes have a resistance of 2-3 MΩ. […] Responses to 1 mM glutamate are then determined in the presence of test compound. […]
In order to determine the potency of the test compound, the concentration of the test compound, both in the bathing solution and co-applied with glutamate, is increased in half log units until the maximum effect is seen. […] Reversibility of test compound activity is determined by assessing control glutamate 1 mM responses. Once the control responses to the glutamate challenge are re-established, the potentiation of these responses by 100 μM cyclothiazide is determined by its inclusion in both the bathing solution and the glutamate-containing solution. In this manner, the efficacy of the test compound relative to that of cyclothiazide can be determined. […]

T1 sequence (P48058 22-902 limits assumed): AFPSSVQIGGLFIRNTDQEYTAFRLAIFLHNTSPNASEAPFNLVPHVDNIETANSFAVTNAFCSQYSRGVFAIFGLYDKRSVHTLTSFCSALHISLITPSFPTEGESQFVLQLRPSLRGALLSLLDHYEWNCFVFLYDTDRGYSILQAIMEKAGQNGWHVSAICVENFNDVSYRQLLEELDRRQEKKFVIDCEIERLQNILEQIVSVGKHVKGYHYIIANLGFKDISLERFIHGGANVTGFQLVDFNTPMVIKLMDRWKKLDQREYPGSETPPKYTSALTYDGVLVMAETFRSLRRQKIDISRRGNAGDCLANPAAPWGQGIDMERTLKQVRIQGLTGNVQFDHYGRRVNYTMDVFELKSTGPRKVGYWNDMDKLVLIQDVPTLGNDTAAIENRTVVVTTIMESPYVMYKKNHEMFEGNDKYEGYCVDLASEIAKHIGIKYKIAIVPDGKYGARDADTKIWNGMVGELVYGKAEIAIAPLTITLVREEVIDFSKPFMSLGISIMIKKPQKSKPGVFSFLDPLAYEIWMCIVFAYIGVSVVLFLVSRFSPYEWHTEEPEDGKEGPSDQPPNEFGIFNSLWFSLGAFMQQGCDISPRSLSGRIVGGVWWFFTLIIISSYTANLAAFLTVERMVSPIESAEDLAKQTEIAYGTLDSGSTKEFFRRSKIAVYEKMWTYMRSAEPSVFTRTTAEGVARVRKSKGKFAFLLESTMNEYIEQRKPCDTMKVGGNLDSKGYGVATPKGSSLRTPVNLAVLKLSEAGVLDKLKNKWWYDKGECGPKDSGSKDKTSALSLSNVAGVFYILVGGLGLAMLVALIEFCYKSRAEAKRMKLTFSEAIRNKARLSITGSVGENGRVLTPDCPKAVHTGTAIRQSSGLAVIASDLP

EC50: 188 ± 15.3 nM
SMILES: CC(C)S(=O)(=O)NC[C@H](C)c1ccc(-c2ccc(C(=O)O)cc2C#N)cc1 [Example 1, 1-(R)-2-Cyano-4′-[1-methyl-2-(propane-2-sulfonylamino)-ethyl]-biphenyl-4-carboxylic acid]
